Target: T1, CFTR (Homo sapiens, UniProt P13569, DEL508-508)
T1 construct: Primary CF airway epithelial cells were obtained from the UNC Cystic Fibrosis Tissue Procurement and Cell Culture Core; host or cells: primary CF airway epithelial cells
Assay: Equivalent current assay in Primary CF airway epithelial cells (NAUC)
Type: cell-based
Conditions: 24 h, normalized to VX809 (3 μM) positive control; for Nauc @ 3 μM: 3 μM test compound; for Nauc @ 10 μM: 10 μM test compound
Description: Primary CF airway epithelial cells were obtained from the UNC Cystic Fibrosis Tissue Procurement and Cell Culture Core. The cells are grown at 37° C. in a Heracell 150i incubator using growth media (BEGM, Fischer). Cells were then transferred to differentiation media (ALI, UNC) for a minimum of 4 weeks on coated Costar snapwells. Two days before the Ussing assay the mucus on the apical surface of the cells was aspirated after incubating with 200 μL of differentiation Media for at least thirty (30) minutes. One day before the Ussing assay test compounds were added to the basolateral surface of the cells at various test concentrations dissolved in DMSO. Duplicate wells were prepared giving a n=3 or n=4 protocol.
Cells were treated for 24 hours with various combinations and concentrations of the test articles, reference standard (3 μM VX809, positive control). Compounds stock solutions were prepared in DMSO and diluted 1/1000 into ALI media to their final assay concentration. Cells were treated with combination solutions (2 mL of each dilution) and incubated at 37° C. for 24 h.
For the equivalent current assay, cells on four Transwell (24-well) plates were treated. Each Transwell plate was filled with 200 μl of HBS on the apical surface and 2 ml on the basolateral surface. Plates were placed horizontally in a heated mount at 37° C., and equilibrated for several minutes. Resting current was measured for 15 min and then blocked by the apical addition of 5 μM benzamil. After 20 min, 10 μM forskolin and 1 μM VX770 were added to both the apical and basolateral side to stimulate CFTR. An increase in chloride current is seen as an upward deflection of the trace. After another 30 min, CFTR-172 (a CFTR inhibitor, 20 μM) and/or bumetanide (20 uM) was added to block CFTR mediated chloride current.
The raw data, current vs. time for the Ussing chamber (sampling interval: 10 s) and voltage vs. time and resistance vs. time for the equivalent current assay (sampling interval: 5 minutes) were transferred to Excel (Microsoft Office Professional, version 14.0.7106.5003) for analysis. CFTR specific current was measured as the average amplitude of the increase in current elicited upon addition forskolin and ending upon addition of the CFTR channel specific blocker CFTR-172. This average is equivalent to the sum of the average forskolin activated and the average VX770-potentiated currents. The average current measured in vehicle (0.1% DMSO) treated cells, Iv, was subtracted from the current for the test article, ITA, or from the corrector reference standard VX809 (3 uM ISTD. For replicate measurements, the average vehicle subtracted response for the test article, was normalized to the average vehicle subtracted inhibitor response of the reference corrector VX809 (3 μM). INSC=(ITA−IV)(ave)/(ISTD−IV)(ave) (Equation 1)
A second endpoint, for the equivalent current assay, evaluated was NAUC, the normalized area under the curve (AUC) measuring the response after addition of forskolin and VX770 to the time point right before the addition of the CFTR inhibitor. The AUC is effectively the average response multiplied by the duration of the response. The AUC of the test article, AUCTA was then corrected by subtracting the average vehicle response, AUCV,ave over the same time range, and normalized as for the inhibitor-sensitive current to the difference of the corrector reference standard VX809 (3 μM VX809r,ave and the vehicle response: NAUCTA=[AUCTA−AUCV,ave]/[AUCVx809r,ave−AUCV,ave] (Equation 2).
The normalized value for DMSO is 0.0 and for VX-809 alone is 1.0. Combinations of compounds with VX-809 that give normalized values greater than 1.0 show activity in the combination assay. A value of 2 means the test compound doubles the effect to VX-809 alone.
Experiments were run with a minimum of n=4 replicates per concentration. […]

T1 sequence (P13569 with tags, fused parts or gaps DEL508-508): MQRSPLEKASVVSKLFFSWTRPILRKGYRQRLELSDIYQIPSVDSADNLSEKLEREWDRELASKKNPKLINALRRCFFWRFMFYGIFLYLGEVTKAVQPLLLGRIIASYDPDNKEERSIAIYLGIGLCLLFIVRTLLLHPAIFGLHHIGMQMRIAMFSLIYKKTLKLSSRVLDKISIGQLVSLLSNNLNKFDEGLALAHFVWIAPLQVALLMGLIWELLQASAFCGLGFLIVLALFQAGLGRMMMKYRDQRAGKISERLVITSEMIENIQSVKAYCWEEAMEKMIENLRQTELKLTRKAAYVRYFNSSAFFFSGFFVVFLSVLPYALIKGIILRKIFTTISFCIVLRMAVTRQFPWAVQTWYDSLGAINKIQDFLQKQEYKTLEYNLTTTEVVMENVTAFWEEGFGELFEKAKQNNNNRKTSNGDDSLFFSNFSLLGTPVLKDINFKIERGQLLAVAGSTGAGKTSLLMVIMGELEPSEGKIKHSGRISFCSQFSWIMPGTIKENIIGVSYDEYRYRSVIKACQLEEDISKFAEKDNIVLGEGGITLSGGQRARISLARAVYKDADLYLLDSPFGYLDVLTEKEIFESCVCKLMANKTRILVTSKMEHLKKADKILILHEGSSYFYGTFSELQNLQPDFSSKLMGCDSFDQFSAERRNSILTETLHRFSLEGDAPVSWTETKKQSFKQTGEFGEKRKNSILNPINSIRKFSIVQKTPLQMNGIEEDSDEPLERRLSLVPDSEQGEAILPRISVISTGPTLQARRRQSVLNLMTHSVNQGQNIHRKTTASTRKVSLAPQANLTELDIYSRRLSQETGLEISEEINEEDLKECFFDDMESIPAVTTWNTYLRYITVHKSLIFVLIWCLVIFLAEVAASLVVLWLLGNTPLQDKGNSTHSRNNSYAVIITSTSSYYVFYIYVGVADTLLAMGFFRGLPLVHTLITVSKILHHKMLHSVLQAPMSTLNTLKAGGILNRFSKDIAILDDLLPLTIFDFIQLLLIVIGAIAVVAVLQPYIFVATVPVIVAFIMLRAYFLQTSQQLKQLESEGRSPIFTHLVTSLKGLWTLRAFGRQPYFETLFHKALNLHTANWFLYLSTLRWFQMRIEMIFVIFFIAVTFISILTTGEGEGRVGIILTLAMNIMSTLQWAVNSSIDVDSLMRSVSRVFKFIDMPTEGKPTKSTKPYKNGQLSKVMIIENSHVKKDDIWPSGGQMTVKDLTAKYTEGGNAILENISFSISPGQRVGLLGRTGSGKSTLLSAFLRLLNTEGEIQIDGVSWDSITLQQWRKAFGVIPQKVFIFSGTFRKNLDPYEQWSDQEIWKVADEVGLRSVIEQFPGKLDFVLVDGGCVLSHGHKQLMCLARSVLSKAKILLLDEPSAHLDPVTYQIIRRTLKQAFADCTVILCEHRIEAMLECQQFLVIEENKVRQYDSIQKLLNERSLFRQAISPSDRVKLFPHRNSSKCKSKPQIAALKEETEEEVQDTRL

SMILES | Nauc @ 3 μM | Nauc @ 10 μM
O=C1C2C3CCCN3C3(C(=O)Nc4c(Br)cc(Br)cc43)C2C(=O)N1c1cc(Cl)cc(Cl)c1 (stereo not shown) [Example 34] | +++ (NAUC “+++” refers to an observed NAUC >170% of positive control) | +++ (NAUC “+++” refers to an observed NAUC >170% of positive control)
O=C1C2C3C[C@H](F)CN3C3(C(=O)Nc4c(Cl)cc(Cl)cc43)C2C(=O)N1c1cc(Cl)cc(Cl)c1 (stereo partly shown) [Example 49] | ++ (NAUC “++” refers to an observed NAUC 170-140% of positive control) | +++ (NAUC “+++” refers to an observed NAUC >170% of positive control)
Cc1ccccc1CC1NC2(C(=O)Nc3c(Cl)cc(Cl)cc32)C2C(=O)N(c3cc(Cl)cc(Cl)c3)C(=O)C12 (stereo not shown) [Example 199] | +++ (NAUC “+++” refers to an observed NAUC >170% of positive control) | ++ (NAUC “++” refers to an observed NAUC 170-140% of positive control)
O=C1C2C3CC4(CC4)CN3C3(C(=O)Nc4c(Cl)cc(Cl)cc43)C2C(=O)N1c1cc(Cl)cc(Cl)n1 (single isomer, unassigned) [Example 219] | ++ (NAUC “++” refers to an observed NAUC 170-140% of positive control) | + (NAUC “+” refers to an observed NAUC <140% of positive control)
O=C1C2C3CCCN3C3(C(=O)Nc4c(C(F)(F)F)cccc43)C2C(=O)N1c1cc(Cl)cc(Cl)c1 (stereo not shown) [Example 18] | ++ (NAUC “++” refers to an observed NAUC 170-140% of positive control) | + (NAUC “+” refers to an observed NAUC <140% of positive control)
CC1(C)CC2C3C(=O)N(c4cc(Cl)cc(Cl)c4)C(=O)C3C3(C(=O)Nc4c(Cl)cc(Cl)cc43)N2C1 (stereo not shown) [Example 103] | ++ (NAUC “++” refers to an observed NAUC 170-140% of positive control) | +++ (NAUC “+++” refers to an observed NAUC >170% of positive control)
O=C1C2C3C[C@H](O)CN3C3(C(=O)Nc4c(Br)cc(Br)cc43)C2C(=O)N1c1cc(Cl)cc(Cl)c1 (single isomer, unassigned) [Example 51] | +++ (NAUC “+++” refers to an observed NAUC >170% of positive control) | ++ (NAUC “++” refers to an observed NAUC 170-140% of positive control)
O=C(O)c1cccc(C2C3C(=O)N(c4cc(Cl)cc(Cl)c4)C(=O)C3C3CCCN32)c1 (stereo not shown) [Example 150] | + (NAUC “+” refers to an observed NAUC <140% of positive control) | ++ (NAUC “++” refers to an observed NAUC 170-140% of positive control)
O=C1C2C3CC(=C(F)F)CN3C3(C(=O)Nc4c(Cl)cc(Cl)cc43)C2C(=O)N1c1cc(Cl)cc(Cl)c1 (stereo not shown) [Example 100] | +++ (NAUC “+++” refers to an observed NAUC >170% of positive control) | +++ (NAUC “+++” refers to an observed NAUC >170% of positive control)
O=C1C2C3CC4(CN3C3(C(=O)Nc5c(Cl)cc(Cl)cc53)C2C(=O)N1c1cc(Cl)cc(Cl)c1)OCCO4 (stereo not shown) [Example 169] | + (NAUC “+” refers to an observed NAUC <140% of positive control) | ++ (NAUC “++” refers to an observed NAUC 170-140% of positive control)
COc1cc(Cl)cc(N2C(=O)C3C4C[C@H](O)CN4C4(C(=O)Nc5c(Cl)cc(Cl)cc54)C3C2=O)c1 (single isomer, unassigned) [Example 115] | + (NAUC “+” refers to an observed NAUC <140% of positive control) | ++ (NAUC “++” refers to an observed NAUC 170-140% of positive control)
O=C1C2C3CC(F)(F)CN3C3(C(=O)Nc4c(Cl)cc(Cl)cc43)C2C(=O)N1c1cc(Cl)cc(Cl)n1 (stereo not shown) [Example 193] | +++ (NAUC “+++” refers to an observed NAUC >170% of positive control) | +++ (NAUC “+++” refers to an observed NAUC >170% of positive control)
O=C1C2C3CC4(CC4)CN3C3(C(=O)Nc4c(Cl)cc(Cl)cc43)C2C(=O)N1c1cc(Cl)cc(Cl)n1 (stereo not shown) [Example 184] | +++ (NAUC “+++” refers to an observed NAUC >170% of positive control) | +++ (NAUC “+++” refers to an observed NAUC >170% of positive control)
C[C@@]1(F)CC2C3C(=O)N(c4cc(Cl)cc(Cl)n4)C(=O)C3C3(C(=O)Nc4c(Cl)cc(Cl)cc43)N2C1 (stereo partly shown) [Example 173] | +++ (NAUC “+++” refers to an observed NAUC >170% of positive control) | +++ (NAUC “+++” refers to an observed NAUC >170% of positive control)
O=C1C2C3C[C@H](O)CN3C3(C(=O)Nc4ccc(C(F)(F)F)cc43)C2C(=O)N1c1cc(Cl)cc(Cl)c1 (stereo partly shown) [Example 42] | ++ (NAUC “++” refers to an observed NAUC 170-140% of positive control) | ++ (NAUC “++” refers to an observed NAUC 170-140% of positive control)
O=C1C2C3CCCN3C3(C(=O)Nc4c(Cl)cc(Cl)cc43)C2C(=O)N1c1cc(C(F)(F)F)cc(C(F)(F)F)c1 (stereo not shown) [Example 26] | + (NAUC “+” refers to an observed NAUC <140% of positive control) | +++ (NAUC “+++” refers to an observed NAUC >170% of positive control)
O=C1C2C3C[C@H](Cl)CN3C3(C(=O)Nc4c(Cl)cc(Cl)cc43)C2C(=O)N1c1cc(Cl)cc(Cl)c1 (stereo partly shown) [Example 57] | +++ (NAUC “+++” refers to an observed NAUC >170% of positive control) | +++ (NAUC “+++” refers to an observed NAUC >170% of positive control)
[2H]C12C(=O)N(c3cc(Cl)cc(Cl)c3)C(=O)C1([2H])C1(C(=O)Nc3c(Cl)cc(Cl)cc31)N1C[C@@H](O)CC12 (single isomer, unassigned) [Example 5, (7′S)-5,7-Dichloro-2′-(3,5-dichlorophenyl)-7′-hydroxy-3a′,6′,7′,8′,8a′,8b′-hexahydro-1′H-spiro[indoline-3,4′-pyrrolo[3,4-a]pyrrolizine]-1′,2,3′(2′H)-trione-3a′,8b′-d2] | +++ (NAUC “+++” refers to an observed NAUC >170% of positive control) | +++ (NAUC “+++” refers to an observed NAUC >170% of positive control)
CC(=O)Oc1c(Cl)cc(Cl)cc1N1C(=O)C2C3C[C@H](O)CN3C3(C(=O)Nc4c(Cl)cc(Cl)cc43)C2C1=O (stereo partly shown) [Example 91] | + (NAUC “+” refers to an observed NAUC <140% of positive control) | +++ (NAUC “+++” refers to an observed NAUC >170% of positive control)
O=C(O)CC1NC2(C(=O)Nc3c(Cl)cc(Cl)cc32)C2C(=O)N(c3cc(Cl)cc(Cl)c3)C(=O)C12 (stereo not shown) [Example 157] | +++ (NAUC “+++” refers to an observed NAUC >170% of positive control) | + (NAUC “+” refers to an observed NAUC <140% of positive control)

Reference: US10072017B2, “Compounds and methods for the treatment of cystic fibrosis” (Flatley Discovery Lab, LLC, priority 2015, dated 2018)
